Here are results for 27 molecules from patent US12006321B2, “Substituted pyrazolo[1,5-a]pyrimidines as apelin receptor agonists” (Sanford Burnham Prebys Medical Discovery Institute, priority 2017, dated 2024).

In this assay the target is T1, human apelin receptor (APJ, APLNR) (Homo sapiens, UniProt P35414).
T1 construct: host or cells: Chinese hamster ovary (CHO) cells, stably integrated receptor
T1 sequence (P35414 1-380): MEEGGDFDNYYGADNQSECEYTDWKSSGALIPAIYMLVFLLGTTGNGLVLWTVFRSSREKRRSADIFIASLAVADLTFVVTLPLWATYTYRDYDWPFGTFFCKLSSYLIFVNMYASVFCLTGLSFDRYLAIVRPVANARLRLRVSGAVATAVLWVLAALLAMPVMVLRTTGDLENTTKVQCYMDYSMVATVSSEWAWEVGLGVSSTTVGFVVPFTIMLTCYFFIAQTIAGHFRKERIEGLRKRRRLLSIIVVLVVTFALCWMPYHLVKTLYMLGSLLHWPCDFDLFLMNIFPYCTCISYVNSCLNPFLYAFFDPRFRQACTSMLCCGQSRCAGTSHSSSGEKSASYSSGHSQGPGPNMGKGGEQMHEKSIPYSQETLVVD
As to the kind of experiment: cell-based cAMP assay (TR-FRET) in Chinese hamster ovary cells expressing the apelin receptor. The conditions noted are these: EC50 = 50% of control (apelin-13, 1 nM) response; cAMP in CHO cells, 0.5 h incubation; read-out: Potency Category. On the procedure:
This example illustrates the biological activity of various compounds tested against the APJ receptor.
Commercially available cell lines were used to screen chemical libraries to identify compounds that potently and selectively activated the human apelin receptor. The assays disclosed herein were performed using cell lines from DiscoveX, Inc.
Biological activity was determined to the cell-based assay. This assay detects activation of the receptor by reporting on intracellular cyclic adenosine monophosphate (cAMP) level. Chinese hamster ovary cells engineered to express the stably integrated human appellant receptor (APJ, AGTRL-one, APLNR), pleaded into the wells of the microtiter plate. Cells were stimulated with […] to increase intracellular cyclic AMP. Immediately following, compounds were added to the range of final concentrations 0.0-100 μM, in DMSO (not to exceed a final DMSO concentration greater than 1% v/v), and allowed to incubate with the cells for 0.5 h. At the end of the incubation, cells were lysed to stop APJ signaling and cAMP was quantified using a commercially available competitive immunoassay kit that applies homogenous time-resolved florescence energy transfer (TR-FRET). The assay is based on the competition between a europium (Eu) chelate-labeled cAMP donor tracer and cellular cAMP for binding sites on a cAMP-specific monoclonal antibody labeled with an acceptor fluorophore. When antibodies are bound to the cAMP tracer light emissions at 320 nm stimulate the energy transfer from the donor to the acceptor, which in turn emits light at 665 nm. In the presence of competitive unlabeled cAMP (derived from the activity of the receptor or forskolin-stimulated production of cAMP), the labelled cAMP tracer is dissociated from the cAMP antibody, resulting in a loss of FRET signal. The amount of light emitted by the FRET is inversely proportional to the cAMP generated by the cell/receptor system. Potency and efficacy at APJ are reported in reference to the canonical APJ receptor agonist apelin-13 when tested at 1 nM.
Compound competency is reported as the effective concentration required to effect 50% (EC 50) of the control (apelin—13, 1 nM) response in micromole are (μM) units. Compound efficacy (% response) is reported as a percentage of the maximal apein-13 response at 1 nM (control). Potencies were calculated by fitting a four-point logistic curve to concentration response consisting of at least 10 discrete data points spanning effective range of the compounds in the cell-based assay that measures cAMP. In Table 1, the Potency Categories are A, B, C and D. Category A EC50>500 nM; Category B 200<EC50<500 nM; Category C 100<EC50<200 nM; Category D<100 nM.
(In general: Changes in cAMP serve as a functional read-out for many G protein-coupled receptors.)
Consider `Cc1nn2c(C)cc(C(=O)O)nc2c1-c1ccccc1` [Compound 4, 2,7-dimethyl-3-phenyl-8-hydropyrazolo[1,5-a]pyrimidine-5-carboxylic acid], for which the EC50 is above 0.5 µM.
Regarding `CCCc1cc(C(=O)O)nc2c(-c3ccccc3)c(C)nn12` [Compound 36, 2-methyl-3-phenyl-7-propyl-8-hydropyrazolo[1,5-a]pyrimidine-5-carboxylic acid], the EC50 was above 0.5 µM.
Next, `CCc1nn2c(C(C)C)cc(C(=O)O)nc2c1-c1ccccc1` [Compound 13, 2-ethyl-7-(methylethyl)-3-phenyl-8-hydropyrazolo[1,5-a]pyrimidine-5-carboxylic acid]: above 0.5 µM; `COC(=O)c1cc(N(C)c2ccc(F)cc2)n2nc(C)c(-c3c(C)cccc3C)c2n1` [Compound 148]: above 0.5 µM.
Turning to `COC(=O)c1cc(C(C)C)n2nc(C(=O)OC)c(-c3c(C)cccc3C)c2n1` [Compound 95, methyl 3-(2,6-dimethylphenyl)-2-(methoxycarbonyl)-7-(methylethyl)-8-hydropyrazolo[1,5-a]pyrimidine-5-carboxylate], the EC50 is above 0.5 µM.
The same measure for `Cc1cccc(C(=O)O)c1-c1c(C)nn2c(C(C)C)cc(C(=O)O)nc12` [Compound 85, 3-(2-carboxy-6-methylphenyl)-2-methyl-7-(methylethyl)-8-hydropyrazolo[1,5-a]pyrimidine-5-carboxylic acid]: above 0.5 µM; for `CCOC(=O)c1cc(Nc2ccccc2)n2nc(C)c(-c3c(C)cccc3C)c2n1` [Compound 117, ethyl 3-(2,6-dimethylphenyl)-2-methyl-7-(phenylamino)-8-hydropyrazolo[1,5-a]pyrimidine-5-carboxylate]: above 0.5 µM; for `Cc1cccc(C)c1-c1c(C)nn2c(N3CCCC3)cc(C(=O)O)nc12` [Compound 123, 3-(2,6-dimethylphenyl)-2-methyl-7-pyrrolidinyl-8-hydropyrazolo[1,5-a]pyrimidine-5-carboxylic acid]: above 0.5 µM.
For `Cc1cccc(C)c1-c1c(-c2ccccc2)nn2c(C(C)C)cc(C(=O)O)nc12` [Compound 79, 3-(2,6-dimethylphenyl)-7-(methylethyl)-2-phenyl-8-hydropyrazolo[1,5-a]pyrimidine-5-carboxylic acid], the EC50 is above 0.5 µM.
In the case of `CCc1cccc(C)c1-c1c(C)nn2c(C(C)C)cc(C(=O)O)nc12` [Compound 121, 3-(6-ethyl-2-methylphenyl)-2-methyl-7-(methylethyl)-8-hydropyrazolo[1,5-a]pyrimidine-5-carboxylic acid], the EC50 was above 0.5 µM.
With `Cc1cccc(Br)c1-c1c(C)nn2c(C(C)C)cc(C(=O)O)nc12` [Compound 130, 3-(2-bromo-6-methylphenyl)-2-methyl-7-(methylethyl)-8-hydropyrazolo[1,5-a]pyrimidine-5-carboxylic acid], the EC50 lay in the range of 0.2 to 0.5 µM.
In the case of `CCOC(=O)c1cc(C(C)C)n2nc(C)c(-c3c(C)cccc3C(=O)OCC)c2n1` [Compound 67, ethyl 3-[2-(ethoxycarbonyl)-6-methylphenyl]-2-methyl-7-(methylethyl)-8-hydropyrazolo[1,5-a]pyrimidine-5-carboxylate], the EC50 is above 0.5 µM.
Next, `COc1cccc(Cl)c1-c1c(C)nn2c(C(C)C)cc(C(=O)O)nc12` [Compound 119, 3-(6-chloro-2-methoxyphenyl)-2-methyl-7-(methylethyl)-8-hydropyrazolo[1,5-a]pyrimidine-5-carboxylic acid]: above 0.5 µM; `CCOC(=O)c1cc(C(C)C)n2nc(C)c(-c3ccccc3Cl)c2n1` [Compound 19, ethyl 3-(2-chlorophenyl)-2-methyl-7-(methylethyl)-8-hydropyrazolo[1,5-a]pyrimidine-5-carboxylate]: above 0.5 µM.
Next, `CCOC(=O)c1cc(-c2ccccc2)n2nc(C)c(-c3c(C)cccc3C)c2n1` [Compound 82, ethyl 3-(2,6-dimethylphenyl)-2-methyl-7-phenyl-8-hydropyrazolo[1,5-a]pyrimidine-5-carboxylate]: above 0.5 µM; `Cc1cccc(C)c1-c1c(C)nn2c(Oc3ccccc3)cc(C(=O)O)nc12` [Compound 107, 3-(2,6-dimethylphenyl)-2-methyl-7-phenoxy-8-hydropyrazolo[1,5-a]pyrimidine-5-carboxylic acid]: above 0.5 µM; `Cc1cccc(C)c1-c1c(C2CC2)nn2c(C(C)C)cc(C(=O)O)nc12` [Compound 84, 3-(2,6-dimethylphenyl)-2-cyclopropyl-7-(methylethyl)-8-hydropyrazolo[1,5-a]pyrimidine-5-carboxylic acid]: above 0.5 µM.
Next, `Cc1cccc(C)c1-c1c(C)nn2c(N(C)C)cc(C(=O)O)nc12` [Compound 103, 7-(dimethylamino)-3-(2,6-dimethylphenyl)-2-methyl-8-hydropyrazolo[1,5-a]pyrimidine-5-carboxylic acid]: above 0.5 µM.
As to `CCOC(=O)c1cc(C2CCC2)n2nc(C)c(-c3c(C)cccc3C)c2n1` [Compound 60, ethyl 3-(2,6-dimethylphenyl)-7-cyclobutyl-2-methyl-8-hydropyrazolo[1,5-a]pyrimidine-5-carboxylate], the EC50 was above 0.5 µM.
Turning to `Cc1cccc(C)c1-c1c(C(C)C)nn2c(C(C)C)cc(C(=O)O)nc12` [Compound 80, 2,7-bis(methylethyl)-3-(2,6-dimethylphenyl)-8-hydropyrazolo[1,5-a]pyrimidine-5-carboxylic acid], the EC50 was above 0.5 µM.
For the molecule `Cc1cccc(Cl)c1-c1c(C)nn2c(C(C)C)cc(C(=O)O)nc12` [Compound 93, 3-(6-chloro-2-methylphenyl)-2-methyl-7-(methylethyl)-8-hydropyrazolo[1,5-a]pyrimidine-5-carboxylic acid], the EC50 was in the range of 0.2 to 0.5 µM.
Turning to `COc1cc(C)c(-c2c(C)nn3c(C(C)C)cc(C(=O)O)nc23)c(C)c1` [Compound 48, 3-(4-methoxy-2,6-dimethylphenyl)-2-methyl-7-(methylethyl)-8-hydropyrazolo[1,5-a]pyrimidine-5-carboxylic acid], the EC50 is above 0.5 µM.
Next, `Cc1nn2c(C(C)C)cc(C(=O)N(C)C)nc2c1-c1ccccc1` [Compound 16, N,N-dimethyl[2-methyl-7-(methylethyl)-3-phenyl(8-hydropyrazolo[1,5-a]pyrimidin-5-yl)]carboxamide]: above 0.5 µM; `COc1cccc(-c2c(C)nn3c(C(C)C)cc(C(=O)O)nc23)c1` [Compound 22, 3-(3-methoxyphenyl)-2-methyl-7-(methylethyl)-8-hydropyrazolo[1,5-a]pyrimidine-5-carboxylic acid]: above 0.5 µM.
Regarding `Cc1cccc(C)c1-c1c(CN(C)C)nn2c(C(C)C)cc(C(=O)O)nc12` [Compound 90, 2-[(dimethylamino)methyl]-3-(2,6-dimethylphenyl)-7-(methylethyl)-8-hydropyrazolo[1,5-a]pyrimidine-5-carboxylic acid], the EC50 is above 0.5 µM.
Turning to `Cc1ccc(Nc2cc(C(=O)O)nc3c(-c4c(C)cccc4C)c(C)nn23)cc1` [Compound 141, 3-(2,6-dimethylphenyl)-2-methyl-7-[(4-methylphenyl)amino]-8-hydropyrazolo[1,5-a]pyrimidine-5-carboxylic acid], the EC50 was above 0.5 µM.
Next, `Cc1cccc(F)c1-c1c(C)nn2c(C(C)C)cc(C(=O)O)nc12` [Compound 51, 3-(6-fluoro-2-methylphenyl)-2-methyl-7-(methylethyl)-8-hydropyrazolo[1,5-a]pyrimidine-5-carboxylic acid]: 0.2 to 0.5 µM.
